Where “and” joins values, the source holds several entries; their conditions need not be identical. Identical values can stand only once.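 How tested: cells in 96-well plates exposed to compound for 48 hours at five concentrations. GI50 is the concentration that inhibits growth by half. Definition used: TGI = concentration required for complete inhibition of growth.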
What was measured:
Assay in all cases: NCI-60 cell line screen, 48 h
[1] = system: UACC-257 melanoma
[2] = system: CCRF-CEM leukemia
[3] = system: HT29 colon
[4] = system: NCI-H23 lung
[5] = system: NCI-H226 lung
[6] = system: SF-295 CNS
[7] = system: HOP-92 NSCLC
[8] = system: SF-268 CNS
[9] = system: MOLT-4 leukemia
[10] = system: HL-60(TB) leukemia

NC(CCc1ccccc1)(C(=O)O)c1ccccc1 (stereo unspecified)
TGI [1]: > 100 µM | TGI [2]: > 100 µM | TGI [3]: > 100 µM | TGI [4]: > 100 µM | TGI [5]: > 100 µM | TGI [6]: > 100 µM | TGI [7]: > 100 µM | TGI [8]: > 100 µM | TGI [9]: > 100 µM

NCCCCN
TGI [10]: > 100 µM | TGI [1]: > 100 µM | TGI [2]: > 100 µM | TGI [3]: > 100 µM | TGI [4]: > 100 µM | TGI [5]: > 100 µM | TGI [6]: > 100 µM | TGI [7]: > 100 µM | TGI [8]: > 100 µM | TGI [9]: > 100 µM

CC(C)c1ccc2c(c1)[C@@]1(C)CC[C@H](C)C(C)(C)C1CC2 (stereo partly specified)
TGI [10]: 63.6 µM | TGI [1]: 36.7 µM | TGI [2]: 47.7 µM | TGI [3]: 31.3 µM | TGI [4]: 35.6 µM | TGI [5]: 32.3 µM | TGI [6]: 38.3 µM | TGI [7]: 36.3 µM | TGI [8]: 36 µM | TGI [9]: 94.7 µM

C[C@H](Nc1ccc(C#N)n(C)c1=O)c1cc2cc(Cl)ccc2[nH]c1=O
GI50 [10]: 22.4 µM | TGI [10]: 58.5 µM | GI50 [1]: 32.6 µM | TGI [1]: > 100 µM | GI50 [2]: 24.5 µM | TGI [2]: > 100 µM | GI50 [3]: 33.1 µM | TGI [3]: > 100 µM | GI50 [4]: 35.4 µM | TGI [4]: > 100 µM | GI50 [5]: 23.4 µM | TGI [5]: > 100 µM | GI50 [6]: 26.9 µM | TGI [6]: 94.3 µM | GI50 [7]: 2.8 µM | TGI [7]: 37.3 µM | GI50 [8]: 22.7 µM | TGI [8]: > 100 µM | GI50 [9]: 18.6 µM | TGI [9]: 64.1 µM

O=P(O)(O)OP(=O)(O)O
TGI [10]: > 100 µM | TGI [1]: > 100 µM | TGI [2]: > 100 µM | TGI [3]: > 100 µM | TGI [4]: > 100 µM | TGI [7]: > 100 µM | TGI [8]: > 100 µM | TGI [9]: > 100 µM

CC(C)(C)OC(=O)N1C[C@H](CC(=O)OCc2ccccc2)C[C@H]1C(=O)OCC(Cl)(Cl)Cl
TGI [10]: > 50 µM | TGI [1]: 31.3 µM | TGI [2]: > 50 µM | TGI [3]: > 50 µM | TGI [4]: > 50 µM | TGI [5]: 29.1 µM | TGI [6]: > 50 µM | TGI [7]: 21.5 µM | TGI [8]: > 50 µM | TGI [9]: 3.36 µM

COC1OC(C(=O)CP(=O)(OC)OC)C(OCc2ccccc2)C(OCc2ccccc2)C1OCc1ccccc1 (stereo unspecified)
TGI [10]: 59.4 µM and 47 µM | TGI [1]: 29.3 µM and 30.1 µM | TGI [2]: > 100 µM and 96.3 µM | TGI [3]: 30.6 µM and 31.7 µM | TGI [4]: 30.3 µM and 32.9 µM | TGI [5]: 39.5 µM and 35.1 µM | TGI [6]: 28.1 µM and 30.3 µM | TGI [7]: 37.1 µM and 34.7 µM | TGI [8]: 37.9 µM and 33.5 µM | TGI [9]: 32.7 µM and 50.3 µM

CCN(CC)/[N+]([O-])=N/OC
TGI [10]: > 100 µM | TGI [1]: > 100 µM | TGI [2]: > 100 µM | TGI [3]: > 100 µM | TGI [4]: > 100 µM | TGI [5]: > 100 µM | TGI [6]: > 100 µM | TGI [7]: > 100 µM | TGI [8]: > 100 µM | TGI [9]: > 100 µM

Cc1cc(O)c2c(c1O)C(=O)c1c(O)ccc(O)c1C2=O
TGI [10]: > 100 µM | TGI [1]: > 100 µM | TGI [2]: > 100 µM | TGI [3]: > 100 µM | TGI [4]: > 100 µM | TGI [5]: > 100 µM | TGI [6]: > 100 µM | TGI [7]: > 100 µM | TGI [8]: > 100 µM | TGI [9]: > 100 µM

CCOC(=O)C(=CNC(Cc1c[nH]c2ccccc12)C(=O)OC)C(=O)OCC (stereo unspecified)
TGI [10]: > 100 µM | TGI [2]: > 100 µM | TGI [3]: > 100 µM | TGI [4]: > 100 µM | TGI [5]: > 100 µM | TGI [6]: > 100 µM | TGI [7]: > 100 µM | TGI [8]: > 100 µM | TGI [9]: > 100 µM

COc1ccc(Cc2nc3cc(Cl)ccc3o2)cc1
TGI [10]: > 100 µM | TGI [1]: 70.6 µM | TGI [2]: > 100 µM | TGI [3]: > 100 µM | TGI [4]: > 100 µM | TGI [5]: > 100 µM | TGI [6]: > 100 µM | TGI [7]: > 100 µM | TGI [8]: > 100 µM | TGI [9]: > 100 µM

CCCCCCOC(=O)C(N)Cc1ccc(OC)cc1 (stereo unspecified)
TGI [10]: > 100 µM | TGI [1]: > 100 µM | TGI [2]: > 100 µM | TGI [3]: > 100 µM | TGI [4]: > 100 µM | TGI [5]: > 100 µM | TGI [6]: > 100 µM | TGI [7]: > 100 µM | TGI [8]: > 100 µM | TGI [9]: > 100 µM

COC(=N)C(C)C
TGI [10]: > 100 µM | TGI [1]: > 100 µM | TGI [2]: > 100 µM | TGI [3]: > 100 µM | TGI [4]: > 100 µM | TGI [5]: > 100 µM | TGI [6]: > 100 µM | TGI [7]: > 100 µM | TGI [8]: > 100 µM | TGI [9]: > 100 µM

C/C(=C\CNc1ncnc2nc(Cl)[nH]c12)CO
TGI [10]: > 100 µM | TGI [1]: > 100 µM | TGI [2]: > 100 µM | TGI [3]: > 100 µM | TGI [4]: > 100 µM | TGI [5]: > 100 µM | TGI [6]: > 100 µM | TGI [7]: > 100 µM | TGI [8]: > 100 µM | TGI [9]: > 100 µM

O=S1c2ccccc2N=C(c2ccc3ccccc3c2)CC1c1ccccc1 (stereo unspecified)
TGI [10]: 58.1 µM | TGI [1]: > 100 µM | TGI [2]: 81.2 µM | TGI [3]: 35.1 µM | TGI [4]: 39 µM | TGI [5]: 78.9 µM | TGI [6]: 36.2 µM | TGI [7]: > 100 µM | TGI [8]: 37.2 µM | TGI [9]: > 100 µM

Reference: PubChem BioAssay (NCI)
